Assay results as given in US20220096526A1, “METHODS AND COMPOSITIONS FOR THE TREATMENT AND PREVENTION OF OCULAR DISEASES AND CONDITIONS” (Tufts Medical Center, Inc., priority 2019, published 2022).

Experiments:
[1] = system: sorted splenic pDCs; experiment: NGF and CREB relative mRNA (qRT-PCR) in cultured sorted splenic pDCs; assay type: cell-based, mouse
Experimental: pDCs were isolated from DPE-GFP×RAG1^−/− and cDCs were purified from naïve WT C57BL/6 mice, respectively. DPE-GFP×RAG1^−/− mice underwent subcutaneous injection of 5×10^6 B16 murine Flt3L-secreting melanoma tumor cells. 10-14 days later, mice were euthanized; spleens were harvested, and mechanically disturbed using a 5 ml syringe plunger and were filtered through a […] cell strainer (BD Falcon). Next, after incubation with ice-cold ammonium chloride (ACK) lysis buffer (Biofluids, Rockville, Md.) for 1 minute to remove contaminating RBCs, cells were washed with PBS. GFP-tagged pDCs were sorted via Moflo Cell Sorter (Beckman Coulter, Brea, Calif.). For obtaining pDCs for co-culturing TGCs with different densities of pDCs, as well as for flow cytometry and presence of NGF mRNA on GFP-tagged splenic pDCs, and comparing the NGF mRNA content in pDCs and cDCs, naïve DPE-GFP×RAG1^−/− mice were used. cDCs were purified using CD11c MicroBeads (Miltenyi Biotec) according to the manufacturer's instruction, with a purity of more than 85%.
(§1) Isolated splenic pDCs were cultured in 48 well plates (200,000 cells/well) for 3 days with Ham's F-12 Nutrient Mix (Gibco, Carlsbad, Calif.) supplemented with 10% heat inactivated fetal bovine serum (FBS; Gemini Bioproducts, Woodland, Calif.), and 1% penicillin/streptomycin (Life Technologies, Carlsbad, Calif.). Cells were treated with 1, 5, and 10 μg/ml Imiquimod (InvivoGen, San Diego, Calif.) or PBS upon seeding. In another set of experiments, cells were pretreated with 10 μM SB 203580 (p38 MAP kinase inhibitor; Sigma-Aldrich) or PBS 1 hour prior to addition of 1 μg/ml Imiquimod (InvivoGen) or PBS. Cells were harvested for RNA or protein extraction 3 days after culture.
(§2) Corneal epithelium was removed with fine forceps following 30 minutes incubation with PBS containing 20 mM EDTA (Sigma-Aldrich) at 37° C. Next, 4-6 corneal stromas were pooled and lysed using BeadBug Microtube Homogenizer (Benchmark Scientific, Inc., Edison, N.J.). Next, RNA was isolated from the corneal stroma using RNeasy Plus Universal Mini kit (QIAGEN, Germantown, Md.). For isolating RNA from freshly sorted pDCs, purified cDCs, cultured pDCs, and cultured TGCs, RNeasy Plus Micro Kit (QIAGEN) was used. RNA yield was measured by spectroscopy (NanoDrop ND-1000; NanoDrop Technologies, Inc., Wilmington, Del.). cDNA was synthetized using 300 ng of template RNA using QuantiTect Reverse Transcription kit (Qiagen). qRT-PCR was performed using iTaq Universal SYBR Green Supermix (Biorad, Hercules, Calif.) and Eppendorf Mastercycler RealPlex 2 (Eppendorf, Hauppauge, N.Y.) with the primers described below. Relative mRNA levels were measured with ΔΔCT method.

[2] = system: sorted splenic pDCs; experiment: Phospho-CREB protein level in cultured splenic pDC lysates (Bio-Plex); assay type: cell-based, mouse; settings: 3 days
Experimental: as §1
On day 3 following culture of sorted pDCs, cells were lysed via Bio-Plex Pro Cell Signaling Reagent Kit (Biorad) supplemented with phosphotase inhibitor cocktail (Roche) and phospho-CREB and β-actin levels were measured via phospho-CREB and β-actin Bio-Plex assays (Biorad) according to the manufacturer's instructions. Relative phospho-CREB to total β-actin protein levels were normalized to control group.

[3] = system: splenic pDCs (CD45+PDCA-1+CD45R/B220+); experiment: Endostatin expression in pDCs of cultured splenic cells (flow cytometry); assay type: cell-based, mouse; settings: splenic cells of C57BL/6 mice, 1 μg/ml, 24 hours
Experimental: Spleens of wildtype C57BL/6 mice were harvested and subjected to mechanical disruption. Samples were then filtered and underwent RBC lysis via incubation with ammonium chloride RBC lysis buffer (ACK; Biofluids, Rockville, Md.). Next, isolated splenic cells were cultured in RPMI supplemented with 10% heat-inactivated fetal bovine serum (FBS; Gemini Bioproducts, Woodland, Calif.), and 1% penicillin/streptomycin (Life Technologies, Carlsbad, Calif.). Cells were treated with 1 μg/ml Imiquimod (TLR7 agonist; InvivoGen, San Diego, Calif.), CpG-ODN (TLR9 agonist; InvivoGen), or PBS control for 24 hours. The experiment was done in triplicate.
After 24 hours of culture, isolated splenic cells were subjected to flow cytometry. In brief, cells were washed and then fixed and permeabilized using Foxp3/Transcription Factor Fixation/Permeabilization Reagent (eBioscience, San Diego, Calif.) according to the manufacturer's instructions. Cells were then washed twice with permeabilization buffer (eBioscience), blocked in 1% anti-CD16/CD32 FcR mAb at 4° C. in permeabilization buffer, and subsequently labeled with combinations of primary antibodies against CD45 (Biolegend, San Diego, Calif.), PDCA-1 (Biolegend), CD45R/B220 (Biolegend), Endostain (Abcam, Cambridge, Mass.) or their respective isotype controls for 30 minutes at 4° C. in the dark. After washing, cells were labeled with fluorochrome-conjugated anti-rabbit secondary antibody (for Endostatin) for 30 minutes at 4° C. All samples were washed and reconstituted in permeabilization before data acquisition with a BD LSR II flow cytometer (BD Biosciences). Data were analyzed with FlowJo V9.2 (FlowJo, LLC).

[4] = system: sorted corneal pDCs; experiment: Single cell PCR on sorted corneal pDCs stimulated in vitro; assay type: cell-based, mouse; settings: 24 hours in vitro, 3 μg/ml
Experimental: as §2
(§3) 8-10 corneas of naïve DPE-GFP×RAG1^−/− mice were excised and digested to yield a single cell suspension as described for flow cytometry experiments. GFP-tagged pDCs were sorted via Moflo Cell Sorter (Beckman Coulter) into a 96-well plate (100 cell/well) and cultured for 24 hours in RPMI (Gibco) supplemented with 10% 10% FBS (Gemini Bioproducts), 1% penicillin/streptomycin (Life Technologies), as well as 3 μg/ml Imiquimod, CpG-ODN, or control ODN (all InvivoGen). RNA isolation and cDNA synthesis were performed via REPLI-g Cell WGA & WTA kit (Qiagen). qRT-PCR was performed as described earlier. In another set of experiments, 4-6 corneas of DPE-GFP×RAG1^−/− mice undergoing inoculation of 10 μg Imiquimod, 10 μg CpG-ODN, or control ODN were harvested 24 hours following inoculation; next, corneas were digested and GFP-tagged pDCs were sorted (100 cell/condition) and underwent single cell PCR.

[5] = system: corneal pDCs; experiment: Ocular inoculation of TLR7 and 9 agonists, single cell PCR on sorted corneal pDCs; assay type: in vivo, mouse; settings: 24 hours; for relative mRNA levels of NGF: 10 μg inoculated to cornea of DPE-GFP×RAG1−/− mice
Experimental: as §3
Following anesthetizing DPE-GFP×RAG1^−/− mice and application of topical proparacaine hydrochloride, central corneal epithelium was debrided using an Algerbrush II corneal rust ring remover with a 0.5-mm burr (Alger Equipment Co, Lago Vista, Tex.). 10 μg Imiquimod (TLR7 agonist; InvivoGen, San Diego, Calif.), 10 μg phosphorothioate CpG 1826 oligonucleotide (CpG-ODN; a synthetic TLR9 agonist; InvivoGen), or control oligonucleotide 1826 (Control ODN; InvivoGen) was topically administered on the eye. 24 hours later corneas were removed to sort corneal GFP-tagged pDCs and single cell PCR experiments.

[6] = system: trigeminal ganglion cells (TGCs); experiment: Neurite outgrowth of TGCs in mono-culture or pDC co-culture with Imiquimod; assay type: cell-based, mouse; settings: day 3
Experimental: Initially, 10-day old pups were euthanized, TGs were excised, chopped into small fragments, and digested in 2 mg/ml Collagenase D (Roche), 2 mg/ml DNAse I (Roche), and 5 mg/ml Dispase II (Sigma-Aldrich) in Hank's Balanced Salt Solution (Gibco) at 37° C. for 30 minutes. Next, after filtering, cells were layered over a 12.5% on 28% Percoll (GE Healthcare, Pittsburgh, Pa.) gradient in L15 media (Gibco) and centrifuged at 1300 g for 10 minutes. Following removing debris in the percoll interface, purified TGCs were recovered from the bottom of the gradient. Next, 10,000 cells/well were seeded in 24 well cell culture plates coated with growth factor reduced Matrigel (Corning Inc, Corning, N.Y.) in Ham's F-12 Nutrient Mix (Gibco) supplemented with 10% heat inactivated FBS (Gemini Bioproducts), 1% penicillin/streptomycin (Life Technologies) and 100 ng/ml NGF (Sigma-Aldrich). After one day of culture, media was changed to a similar media without NGF and sorted pDCs with different numbers were added to transwells. […] TGCs were used for RNA extraction and quantitative real-time PCR.
In another set of experiments, TGCs (10,000 cells/well) were cultured one day to adding 8,000 pDCs/well) to transwells. […] Neurite outgrowth was measured NeuronJ plugin (Meijering et al., Cytometry A 58(2):167-76, 2004) for ImageJ software (NIH, Bethesda, Md.).

| Compound | relative NGF mRNA level ([1]; splenic pDCs pre-treated 1 hour with 10 μM SB 203580, then 1 μg/ml Imiquimod, 3 days) [fold change] | phosphorylation of CREB (phospho-CREB normalized to β-actin) ([2]; splenic pDCs pre-treated 1 hour with 10 μM SB 203580, then 1 μg/ml Imiquimod, in comparison to control) [fold change] | median fluorescent intensity of endostatin staining in pDCs [3] | percentage of endostatin-secreting pDCs [3] | CREB transcription (relative mRNA) [4] | relative mRNA level of NGF [4] | relative mRNA levels of NGF [5] [fold increase] | NGF relative mRNA level ([1]; splenic GFP-tagged pDCs, 3 days, 1, 5 and 10 μg/ml Imiquimod) | CREB relative mRNA level ([1]; splenic GFP-tagged pDCs, 3 days, different concentrations of Imiquimod) | relative NGF mRNA level ([1]; splenic pDCs, 1 μg/ml Imiquimod, 3 days) [fold increase] | phosphorylation of CREB (phospho-CREB normalized to β-actin) ([2]; splenic pDCs, 1 μg/ml Imiquimod) [fold increase] | CREB mRNA level ([5]; ocular inoculation of 10 μg, vs control inoculation) | neurite outgrowth in TGC mono-culture ([6]; TGCs alone, 1, 5 or 10 μg/ml Imiquimod) | neurite outgrowth in pDC and TGC co-culture ([6]; TGCs with 8,000 pDCs/well in transwells, 1, 5 or 10 μg/ml Imiquimod) |
| --- | --- | --- | --- | --- | --- | --- | --- | --- | --- | --- | --- | --- | --- | --- |
| C[S+]([O-])c1ccc(-c2nc(-c3ccncc3)c(-c3ccc(F)cc3)[nH]2)cc1 (stereo not shown) [SB 203580] | 0.4±0.1 | 0.5±0.2 | – | – | – | – | – | – | – | – | – | – | – | – |
| phosphorothioate CpG 1826 oligonucleotide [CpG-ODN] | – | – | increases | increases the percentage of endostatin-secreting | does not result in significant escalation in CREB transcription | did not result in increased NGF mRNA transcription | 1.8±1.6 | – | – | – | – | – | – | – |
| CC(C)Cn1cnc2c(N)nc3ccccc3c21 [Imiquimod] | – | – | increases | increases the percentage of endostatin-secreting | increases transcription of CREB | 2.6±0.7 fold increase | 7.3±1.1 | dose dependent increase | dose-dependent increase | 2.0±0.6 | 3.8±1.5 | higher CREB mRNA levels | does not significantly enhance neurite outgrowth | enhances neurite outgrowth induced by pDCs |
